Source: patent US20200017496A1 (priority 2017, published 2020)
Read-outs that look alike come from different tables or passages of the source.

What was measured:
Experiment in all cases: MIC of compounds alone and combined with antibacterials, broth microdilution (CLSI)
Format in all cases: cell-based
[1] = tested on: Escherichia coli (ECO) isolates; conditions: Escherichia coli
Outline: (§1)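 Log-phase bacteria at a final 5·10^5 CFU/mL in cation-adjusted Mueller-Hinton broth were incubated 16-20 h at 35° C in ambient air with compound alone or with an antibacterial. MIC was the lowest concentration preventing visible growth; combination MIC of the antibacterial was read at each compound concentration.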

[2] = tested on: Morganella morganii (MMO) isolates; conditions: for MIC: Morganella morganii
Outline: as §1

[3] = tested on: Providencia stuartii (PST) isolates; conditions: for MIC: Providencia stuartii, read-out: MIC
Outline: as §1

SMILES: C=CC1=C(C(=O)O)N2C(=O)[C@@H](NC(=O)/C(=N\OCC(=O)O)c3csc(N)n3)[C@H]2SC1 [FIX, Cefixime]
- MIC ([1]; strain ECO UFR174 (TEM-1, KPC-2, OXA-1), ATB alone): 8 µg/mL
- MIC ([1]; strain ECO UFR175 (TEM-1, KPC-2, OXA-9), ATB alone): 64 µg/mL
- MIC ([1]; strain ECO UFR175 (TEM-1, KPC-2, OXA-9), CLA @ 4 μg/ml+ ATB): 16 µg/mL
- MIC ([1]; strain ECO UFR176 (KPC-3, OXA-9*), ATB alone): 64 µg/mL
- MIC ([1]; strain ECO UFR184 (CTX-M-15, CMY-4, OXA-1, OXA-204), ATB alone, read-out: MIC): > 128 µg/mL
- MIC ([1]; strain ECO UFR184 (CTX-M-15, CMY-4, OXA-1, OXA-204), CLA @ 4 μg/ml+ ATB, read-out: MIC): > 128 µg/mL
- MIC ([1]; strain ECO UFR185 (OXA-48), ATB alone, read-out: MIC): > 128 µg/mL
- MIC ([1]; strain ECO UFR185 (OXA-48), CLA @ 4 μg/ml+ ATB, read-out: MIC): > 128 µg/mL
- MIC ([1]; strain ECO UFR186 (TEM-1, CTX-M-14, OXA-48), CLA @ 4 μg/ml+ ATB): 8 µg/mL
- MIC ([1]; strain ECO UFR189 (TEM-1, CTX-M-15, OXA-48), ATB alone, read-out: MIC): > 128 µg/mL
- MIC ([1]; strain ECO UFR189 (TEM-1, CTX-M-15, OXA-48), CLA @ 4 μg/ml+ ATB): 4 µg/mL
- MIC ([1]; strain ECO UFR190 (CTX-M-24, OXA-48), ATB alone): 64 µg/mL
- MIC ([1]; strain ECO UFR190 (CTX-M-24, OXA-48), CLA @ 4 μg/ml+ ATB): 8 µg/mL
- MIC ([1]; strain ECO UFR191 (TEM-1, CTX-M-24, OXA-48), ATB alone, read-out: MIC): > 128 µg/mL
- MIC ([1]; strain ECO UFR191 (TEM-1, CTX-M-24, OXA-48), CLA @ 4 μg/ml+ ATB): 4 µg/mL
- MIC ([1]; strain ECO UFR207 (CTX-M-15), ATB alone, read-out: MIC): > 128 µg/mL
- MIC ([1]; strain ECO UFR207 (CTX-M-15), CLA @ 4 μg/ml+ ATB): 1 µg/mL
- MIC ([1]; strain ECO UFR208 (SHV-12), ATB alone, read-out: MIC): > 128 µg/mL
- MIC ([1]; strain ECO UFR208 (SHV-12), CLA @ 4 μg/ml+ ATB, read-out: MIC): > 128 µg/mL
- MIC ([1]; strain ECO UFR209 (TEM-1, CTX-M-15), ATB alone, read-out: MIC): 1020 µg/mL
- MIC ([1]; strain ECO UFR209 (TEM-1, CTX-M-15), CLA @ 4 μg/ml+ ATB): 1 µg/mL
- MIC ([1]; strain ECO UFR210 (SHV-12), CLA @ 4 μg/ml+ ATB): 0.5 µg/mL
- MIC ([1]; strain ECO UFR211 (TEM-24), ATB alone, read-out: MIC): > 128 µg/mL
- MIC ([1]; strain ECO UFR212 (CMY-2), ATB alone, read-out: MIC): > 128 µg/mL
- MIC ([1]; strain ECO UFR212 (CMY-2), CLA @ 4 μg/ml+ ATB, read-out: MIC): > 128 µg/mL
- MIC ([1]; strain ECO UFR218 (TEM-1, SHV-1, CTX-M-15), ATB alone, read-out: MIC): > 128 µg/mL
- MIC ([1]; strain ECO UFR218 (TEM-1, SHV-1, CTX-M-15), CLA @ 4 μg/ml+ ATB): 1 µg/mL
- MIC ATB in combination ([2]; MMO 200321, AF1 @ 4 μg/mL): 4 µg/mL
- MIC ATB in combination ([2]; MMO 200321, AF1 @ 8 μg/mL): 4 µg/mL
- MIC ATB in combination ([2]; MMO UFR144, AF1 @ 4 μg/mL): 2 µg/mL
- MIC ATB in combination ([2]; MMO UFR144, AF1 @ 8 μg/mL): 2 µg/mL
- MIC ATB in combination ([2]; MMO UFR240, AF1 @ 4 μg/mL): <=0.25 μg/mL
- MIC ATB in combination ([2]; MMO UFR240, AF1 @ 8 μg/mL): <=0.25 μg/mL
- MIC ATB in combination ([2]; MMO UFR241, AF1 @ 4 μg/mL): 2 µg/mL
- MIC ATB in combination ([2]; MMO UFR241, AF1 @ 8 μg/mL): <=0.25 μg/mL
- MIC ATB in combination ([2]; MMO UFR242, AF1 @ 4 μg/mL): 4 µg/mL
- MIC ATB in combination ([2]; MMO UFR242, AF1 @ 8 μg/mL): 2 µg/mL
- MIC ATB in combination ([2]; MMO UFR243, AF1 @ 4 μg/mL): 0.5 µg/mL
- MIC ATB in combination ([2]; MMO UFR243, AF1 @ 8 μg/mL): <=0.25 μg/mL
- MIC ATB in combination ([2]; MMO UFR244, AF1 @ 4 μg/mL): <=0.25 μg/mL
- MIC ATB in combination ([2]; MMO UFR244, AF1 @ 8 μg/mL): <=0.25 μg/mL
- MIC ATB in combination ([2]; MMO UFR245, AF1 @ 4 μg/mL): 2 µg/mL
- MIC ATB in combination ([2]; MMO UFR245, AF1 @ 8 μg/mL): <=0.25 μg/mL
- MIC ATB in combination ([2]; MMO UFR246, AF1 @ 4 μg/mL): 2 µg/mL
- MIC ATB in combination ([2]; MMO UFR246, AF1 @ 8 μg/mL): 1 µg/mL
- MIC ATB in combination ([2]; MMO UFR247, AF1 @ 4 μg/mL): 0.5 µg/mL
- MIC ATB in combination ([2]; MMO UFR247, AF1 @ 8 μg/mL): 0.25 µg/mL
- MIC ([2]; strain MMO 200321 (TEM-1, CTX-M-15, OXA-1), ATB alone): > 128 µg/mL
- MIC ([2]; strain MMO 200321 (TEM-1, CTX-M-15, OXA-1), CLA @ 4 μg/ml+ ATB, read-out: MIC): 32 µg/mL
- MIC ([2]; strain MMO UFR144 (TEM-1, CTX-M-15), ATB alone): > 128 µg/mL
- MIC ([2]; strain MMO UFR144 (TEM-1, CTX-M-15), CLA @ 4 μg/ml+ ATB, read-out: MIC): 32 µg/mL
- MIC ([2]; strain MMO UFR240 (CTX-M-9), ATB alone, read-out: MIC): 1 µg/mL
- MIC ([2]; strain MMO UFR240 (CTX-M-9), CLA @ 4 μg/ml+ ATB, read-out: MIC): 8 µg/mL
- MIC ([2]; strain MMO UFR241 (TEM-1, CTX-M-15), ATB alone): > 128 µg/mL
- MIC ([2]; strain MMO UFR241 (TEM-1, CTX-M-15), CLA @ 4 μg/ml+ ATB, read-out: MIC): 32 µg/mL
- MIC ([2]; strain MMO UFR242 (TEM-52), ATB alone, read-out: MIC): 1020 µg/mL
- MIC ([2]; strain MMO UFR242 (TEM-52), CLA @ 4 μg/ml+ ATB, read-out: MIC): 64 µg/mL
- MIC ([2]; strain MMO UFR243 (DHA-1), ATB alone, read-out: MIC): 8 µg/mL
- MIC ([2]; strain MMO UFR243 (DHA-1), CLA @ 4 μg/ml+ ATB, read-out: MIC): 32 µg/mL
- MIC ([2]; strain MMO UFR244 (DHA-1), ATB alone, read-out: MIC): 4 µg/mL
- MIC ([2]; strain MMO UFR244 (DHA-1), CLA @ 4 μg/ml+ ATB, read-out: MIC): 8 µg/mL
- MIC ([2]; strain MMO UFR245 (DHA-1), ATB alone, read-out: MIC): 32 µg/mL
- MIC ([2]; strain MMO UFR245 (DHA-1), CLA @ 4 μg/ml+ ATB, read-out: MIC): 64 µg/mL
- MIC ([2]; strain MMO UFR246 (DHA-1), ATB alone, read-out: MIC): 32 µg/mL
- MIC ([2]; strain MMO UFR246 (DHA-1), CLA @ 4 μg/ml+ ATB, read-out: MIC): 64 µg/mL
- MIC ([2]; strain MMO UFR247 (DHA-1), ATB alone, read-out: MIC): 16 µg/mL
- MIC ([2]; strain MMO UFR247 (DHA-1), CLA @ 4 μg/ml+ ATB, read-out: MIC): 32 µg/mL
- MIC ATB in combination ([3]; PST UFR94, AF1 @ 4 μg/mL): <=0.25 μg/mL
- MIC ATB in combination ([3]; PST UFR94, AF1 @ 8 μg/mL): <=0.25 μg/mL
- MIC ATB in combination ([3]; PST UFR95, AF1 @ 4 μg/mL): <=0.25 μg/mL
- MIC ATB in combination ([3]; PST UFR95, AF1 @ 8 μg/mL): <=0.25 μg/mL
- MIC ATB in combination ([3]; PST UFR235, AF1 @ 4 μg/mL): 0.125 µg/mL
- MIC ATB in combination ([3]; PST UFR235, AF1 @ 8 μg/mL): 0.063 µg/mL
- MIC ([3]; PST UFR235, alone): 512 µg/mL
- MIC ([3]; strain PST UFR94 (CTX-M-14), ATB alone): 0.5 µg/mL
- MIC ([3]; strain PST UFR94 (CTX-M-14), CLA @ 4 μg/ml+ ATB): 2 µg/mL
- MIC ([3]; strain PST UFR95 (TEM-24), ATB alone): 4 µg/mL
- MIC ([3]; strain PST UFR95 (TEM-24), CLA @ 4 μg/ml+ ATB): 8 µg/mL
- MIC ([3]; strain PST UFR235 (VEB-1), ATB alone): 512 µg/mL
- MIC ([3]; strain PST UFR235 (VEB-1), CLA @ 4 μg/ml+ ATB): 8 µg/mL
